# From US20050096354A1 (published 2005)
row,SMILES,melting point
1,N#Cc1nn(-c2c(Cl)cc(C(F)(F)F)cc2Cl)c(N)c1-c1ccc2c(c1)OCO2,222 °C
2,N#Cc1nn(-c2c(Cl)cc(C(F)(F)F)cc2Cl)c(N)c1-c1ccsc1,210 to 212 °C
3,N#Cc1nn(-c2c(Cl)cc(C(F)(F)F)cc2Cl)c(N)c1-c1cccs1,206 to 207 °C
4,N#Cc1nn(-c2c(Cl)cc(C(F)(F)F)cc2Cl)c(N)c1-c1ccoc1,180 to 181 °C
5,N#Cc1nn(-c2c(Cl)cc(C(F)(F)F)cc2Cl)c(N)c1-c1ccc(Br)cc1,242 to 244 °C
6,N#Cc1nn(-c2c(Cl)cc(C(F)(F)F)cc2Cl)c(N)c1-c1ccc(F)cc1,222 to 223 °C
7,N#Cc1nn(-c2c(Cl)cc(C(F)(F)F)cc2Cl)c(N)c1-c1cccnc1,265 to 267 °C
8,Cc1ccccc1-c1c(C#N)nn(-c2c(Cl)cc(C(F)(F)F)cc2Cl)c1N,199 to 202 °C
9,N#Cc1nn(-c2c(Cl)cc(C(F)(F)F)cc2Cl)c(N)c1-c1ccccc1,198 to 199 °C
10,N#Cc1nn(-c2c(Cl)cc(C(F)(F)F)cc2Cl)c(N)c1-c1cccc(Cl)c1,161 to 162 °C
11,N#Cc1nn(-c2c(Cl)cc(C(F)(F)F)cc2Cl)c(N)c1-c1ccc(F)c(Cl)c1,197 to 198 °C
12,N#Cc1nn(-c2c(Cl)cc(C(F)(F)F)cc2Cl)c(N)c1-c1ccc(Cl)cc1,235 to 237 °C
13,N#Cc1nn(-c2c(Cl)cc(C(F)(F)F)cc2Cl)c(N)c1-c1onc(Br)c1Br,279 °C
14,N#Cc1nn(-c2c(Cl)cc(C(F)(F)F)cc2Cl)c(N)c1-c1cccc([N+](=O)[O-])c1,212 to 214 °C
15,N#Cc1nn(-c2c(Cl)cc(C(F)(F)F)cc2Cl)c(N)c1C1CC1(Br)Br (stereo not drawn),178 to 179 °C
16,N#Cc1nn(-c2c(Cl)cccc2Cl)c(N)c1-c1ccco1,222.6 °C
17,N#Cc1nn(-c2c(Cl)cc(C(F)(F)F)cc2Cl)c(N)c1-c1ccccc1F,197 °C
18,Cc1nc(-c2c(C#N)nn(-c3c(Cl)cc(C(F)(F)F)cc3Cl)c2N)cs1,226 to 228 °C
19,COc1ccc(-c2c(C#N)nn(-c3c(Cl)cc(C(F)(F)F)cc3Cl)c2N)cc1,222 °C
20,N#Cc1nn(-c2c(Cl)cc(C(F)(F)F)cc2Cl)c(N)c1-c1cccc(N)c1,187 °C
21,COC(=O)c1cccc(-c2c(C#N)nn(-c3c(Cl)cc(C(F)(F)F)cc3Cl)c2N)c1,214 to 216 °C

# Results, then the molecule that gave them:
row,melting point,SMILES
1,162 to 163 °C,N#Cc1nn(-c2c(Cl)cc(C(F)(F)F)cc2Cl)c(N)c1-c1ccc(SC(F)(F)F)s1
2,227 °C,N#Cc1nn(-c2c(Cl)cc(C(F)(F)F)cc2Cl)c(N)c1-c1cc(Br)no1
3,208 °C,N#Cc1nn(-c2c(Cl)cc(C(F)(F)F)cc2Cl)c(N)c1-c1cccc2ccccc12
4,266 to 268 °C (dec.),N#Cc1nn(-c2c(Cl)cc(C(F)(F)F)cc2Cl)c(N)c1-c1ccncc1
5,243 to 244 °C,Cc1ccc(-c2c(C#N)nn(-c3c(Cl)cc(C(F)(F)F)cc3Cl)c2N)cc1
6,193 °C,COc1ccccc1-c1c(C#N)nn(-c2c(Cl)cc(C(F)(F)F)cc2Cl)c1N
7,250 °C,COc1ccc(-c2c(C#N)nn(-c3c(Cl)cc(C(F)(F)F)cc3Cl)c2N)cc1OC
8,228 to 230 °C,N#Cc1nn(-c2c(Cl)cc(C(F)(F)F)cc2Cl)c(N)c1-c1cc(Cl)cc(Cl)c1
9,214 °C,N#Cc1nn(-c2c(Cl)cc(C(F)(F)F)cc2Cl)c(N)c1-c1ccc(Br)s1
10,193 to 194 °C,N#Cc1nn(-c2c(Cl)cc(C(F)(F)F)cc2Cl)c(N)c1-c1cc(Cl)oc1Cl
11,164 °C,N#Cc1nn(-c2c(Cl)cc(C(F)(F)F)cc2Cl)c(N)c1-c1cccc(F)c1
12,210 to 212 °C,N#Cc1nn(-c2c(Cl)cc(C(F)(F)F)cc2Cl)c(N)c1-c1ccccc1C(F)(F)F
13,192 to 193 °C,N#Cc1nn(-c2c(Cl)cc(C(F)(F)F)cc2Cl)c(N)c1-c1ccccc1Cl
14,141 to 142 °C,N#Cc1nn(-c2c(Cl)cc(C(F)(F)F)cc2Cl)c(N)c1-c1ccoc1[S+]([O-])C(F)(F)F (stereo not drawn)
15,148 to 151 °C,N#Cc1nn(-c2c(Cl)cc(C(F)(F)F)cc2Cl)c(N)c1-c1ccc(C(F)(F)F)o1
